Data reported in patent publication US9446039B2, “Aminoheteroaryl compounds as MTH1 inhibitors” (CEMM—FORSCHUNGSZENTRUM FÜR MOLEKULARE MEDIZIN GMBH, priority 2012, dated 2016).

Tests used:
Type in all cases: binding
[1] = molecular target: T1, SW480 colon carcinoma cells lysate proteins (Homo sapiens, UniProt Q16181); details: PreyGene 07-Sep
T1 sequence (Q16181 1-437): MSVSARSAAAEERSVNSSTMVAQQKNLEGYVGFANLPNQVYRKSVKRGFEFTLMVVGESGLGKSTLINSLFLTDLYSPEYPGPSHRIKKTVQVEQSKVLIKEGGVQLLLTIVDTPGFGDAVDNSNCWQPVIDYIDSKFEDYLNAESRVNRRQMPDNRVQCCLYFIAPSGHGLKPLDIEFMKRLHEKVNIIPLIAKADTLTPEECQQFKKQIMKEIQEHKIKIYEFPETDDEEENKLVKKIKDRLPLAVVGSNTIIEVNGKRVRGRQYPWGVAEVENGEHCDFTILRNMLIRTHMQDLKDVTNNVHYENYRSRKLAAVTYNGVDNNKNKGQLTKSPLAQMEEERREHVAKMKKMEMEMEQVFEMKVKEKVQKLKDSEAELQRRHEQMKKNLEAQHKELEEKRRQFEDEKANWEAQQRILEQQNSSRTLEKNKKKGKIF

[2] = molecular target: SW480 colon carcinoma cells lysate proteins (Homo sapiens, UniProt P17980); details: PreyGene PSMC3
[3] = molecular target: SW480 colon carcinoma cells lysate proteins (Homo sapiens, UniProt P62826); details: PreyGene RAN
[4] = molecular target: T2, SW480 colon carcinoma cells lysate proteins (Homo sapiens, UniProt Q96FQ6); details: PreyGene S100A16; SW480 cells
T2 sequence (Q96FQ6 1-103): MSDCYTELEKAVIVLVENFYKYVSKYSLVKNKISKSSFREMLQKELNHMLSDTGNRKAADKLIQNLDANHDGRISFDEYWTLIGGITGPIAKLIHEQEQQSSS

[5] = molecular target: SW480 colon carcinoma cells lysate proteins (Homo sapiens, UniProt Q99623); details: PreyGene PHB2; SW480 cells
[6] = molecular target: T3, SW480 colon carcinoma cells lysate proteins (Homo sapiens, UniProt Q9BVC6); details: PreyGene TMEM109; SW480 cells
T3 sequence (Q9BVC6 34-243): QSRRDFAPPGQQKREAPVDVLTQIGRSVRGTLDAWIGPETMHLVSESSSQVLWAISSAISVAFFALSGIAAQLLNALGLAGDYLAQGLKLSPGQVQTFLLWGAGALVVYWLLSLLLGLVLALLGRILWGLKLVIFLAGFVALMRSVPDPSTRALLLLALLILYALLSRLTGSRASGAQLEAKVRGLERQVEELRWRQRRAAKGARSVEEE

[7] = molecular target: T4, SW480 colon carcinoma cells lysate proteins (Homo sapiens, UniProt P52209); details: PreyGene PGD
T4 sequence (P52209 1-483): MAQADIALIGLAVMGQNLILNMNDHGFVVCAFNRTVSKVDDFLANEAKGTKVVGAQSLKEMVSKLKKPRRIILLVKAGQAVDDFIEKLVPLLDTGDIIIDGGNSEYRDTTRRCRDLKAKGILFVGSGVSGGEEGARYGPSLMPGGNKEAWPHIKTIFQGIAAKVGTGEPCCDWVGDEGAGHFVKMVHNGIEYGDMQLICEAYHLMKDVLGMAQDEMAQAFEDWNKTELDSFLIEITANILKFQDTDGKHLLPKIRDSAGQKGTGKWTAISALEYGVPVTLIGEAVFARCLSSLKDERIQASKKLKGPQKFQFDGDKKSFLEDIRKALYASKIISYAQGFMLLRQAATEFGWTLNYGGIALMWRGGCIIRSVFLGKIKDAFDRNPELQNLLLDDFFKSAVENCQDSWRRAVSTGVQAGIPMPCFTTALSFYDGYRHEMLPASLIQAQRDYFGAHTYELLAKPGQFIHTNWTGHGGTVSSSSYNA

Chain of SW480 colon carcinoma cells lysate proteins (Homo sapiens, UniProt P17980) (P17980 whole entry): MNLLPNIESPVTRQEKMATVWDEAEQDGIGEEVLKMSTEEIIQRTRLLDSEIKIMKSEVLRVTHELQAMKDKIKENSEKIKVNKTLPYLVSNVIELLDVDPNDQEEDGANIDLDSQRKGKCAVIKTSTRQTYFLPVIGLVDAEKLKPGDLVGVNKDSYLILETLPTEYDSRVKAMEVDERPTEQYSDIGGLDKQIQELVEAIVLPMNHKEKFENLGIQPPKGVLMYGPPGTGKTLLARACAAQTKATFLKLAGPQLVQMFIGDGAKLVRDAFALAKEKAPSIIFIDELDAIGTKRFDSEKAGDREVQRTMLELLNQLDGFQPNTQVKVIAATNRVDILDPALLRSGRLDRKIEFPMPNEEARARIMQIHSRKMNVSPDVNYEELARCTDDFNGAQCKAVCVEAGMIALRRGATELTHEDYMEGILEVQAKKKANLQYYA
Chain of SW480 colon carcinoma cells lysate proteins (Homo sapiens, UniProt Q99623) (Q99623 whole entry): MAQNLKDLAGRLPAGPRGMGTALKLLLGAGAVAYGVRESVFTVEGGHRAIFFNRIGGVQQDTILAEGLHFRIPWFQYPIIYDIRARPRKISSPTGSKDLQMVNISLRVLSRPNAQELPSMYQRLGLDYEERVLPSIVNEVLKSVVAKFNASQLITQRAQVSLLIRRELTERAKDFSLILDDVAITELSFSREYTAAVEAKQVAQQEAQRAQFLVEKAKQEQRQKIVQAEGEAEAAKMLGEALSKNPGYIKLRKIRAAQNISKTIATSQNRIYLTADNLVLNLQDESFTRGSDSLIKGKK

## C[C@H](Oc1cc(-c2cnn(C3CCNCC3)c2)cnc1N)c1c(Cl)ccc(F)c1Cl [(5)-crizotinib]
[1]
  AvgP: 0.2962
  SC.Exp. 1-1: 3
  SC.Exp. 1-2: 3
  SC.Exp. 2-1: 0
  SC.Exp. 2-2: 0
  Sum (SC.Exp.): 6
[2]
  AvgP: 0.4297
  SC.Exp. 1-1: 3
  SC.Exp. 1-2: 3
  SC.Exp. 2-1: 0
  SC.Exp. 2-2: 0
  Sum (SC.Exp.): 6
[3]
  AvgP: 0.3036
  SC.Exp. 1-1: 5
  SC.Exp. 1-2: 6
  SC.Exp. 2-1: 0
  SC.Exp. 2-2: 0
  Sum (SC.Exp.): 11
[4]
  AvgP: 0
  SC.Exp. 1-1: 1
  SC.Exp. 1-2: 0
  SC.Exp. 2-1: 0
  SC.Exp. 2-2: 0
  SC.Exp. Sum: 1
[5]
  AvgP: 0
  SC.Exp. 1-1: 9
  SC.Exp. 1-2: 8
  SC.Exp. 2-1: 3
  SC.Exp. 2-2: 5
  SC.Exp. Sum: 25
[6]
  AvgP: 0
  SC.Exp. 1-1: 1
  SC.Exp. 1-2: 1
  SC.Exp. 2-1: 0
  SC.Exp. 2-2: 1
  SC.Exp. Sum: 3
[7]
  AvgP: 0.3262
  SC.Exp. 1-1: 4
  SC.Exp. 1-2: 2
  SC.Exp. 2-1: 0
  SC.Exp. 2-2: 0
  Sum (SC.Exp.): 6
